{"source": "patent US20130259807A1", "about": "“CELL CULTURE SCREEN FOR AGENTS THAT CONTROL ADIPOGENESIS AND MYOFIBROBLAST DIFFERENTIATION” (THE REGENTS OF THE UNIVERSITY OF CALIFORNIA, priority 2010, published 2013)", "system": "rat mesenchymal stem cells", "experiment": "Culture screening adipogenesis assay (lipid accumulation, Oil Red O / BODIPY)", "format": "cell-based", "details": "insulin in the progressing medium, positive control set as 100%", "experimental": "To prepare adipogenesis initiation/priming medium, a IBMX standard solution ([…]) is diluted 1:1000 and a dexamethasone standard solution (1 μM dexamethasone standard solution (in DMSO)) is diluted 1:10,000 in DMEM+10% FCS. A typical cocktail of antibiotics can be added to restrict microbe growth. This initiation medium can be stored for up to 6 weeks at 4° C.\nTo prepare positive control progression medium, a standard insulin solution (10 μg/ml insulin) is diluted 1:1000 in DMEM+10% FCS. Antibiotics of choice are added to control growth of microbes. This control progression medium can be stored for up to 6 weeks at 4° C.\nTo prepare experimental/test (e.g., RHAMM blocking or other experimental adipogenic promoting reagent) progression medium, test agents are provided in a standard solution (e.g. 0.001-10 μg RHAMM antibody, peptide mimetic(s), or other test agent(s)). The test agent solution is diluted to the desired concentration (e.g. 1 ng-10 μg RHAMM peptide) in DMEM+10% FCS. […]\nCells for the adipogenesis screen can be plated as follows: The cells are trypsinized and then resuspended in 1 ml DMEM+10% CS to neutralize the trypsin. The cells are then counted. […]\nThe dye can be extracted with methanol:ethanol (1:1) mixture and read oil red O at 520 nm using an ELISA plate reader or for BODIPY® using a fluorometer that detects FITC."}
{"substance": "insulin", "values": [{"measurement": "Extent of lipid accumulation (Oil Red O at 520 nm)", "result": 100, "unit": "%"}]}
